Reference: patent publication US20090176839A1, “FORMULATIONS OF 3-(6-(1-(2,2-DIFLUOROBENZO[D][1,3]DIOXOL-5-YL) CYCLOPROPANECARBOXAMIDO)-3-METHYLPYRIDIN-2-YL)BENZOIC ACID” (priority 2007, published 2009)

Experiments:
[1] = Stability of 6 mg/mL aqueous methylcellulose-polysorbate 80 suspension (HPLC, XRPD, NMR); format: physicochemical; conditions: for Peak purity %: 6 mg/mL aqueous methylcellulose-polysorbate 80 suspension, room temperature
Description: Methylcellulose (0.5 g) was combined with 99.0 g of purified water in a beaker and stirred in a 60-70° C. water bath for 30′-1 hr. The solution was stirred in a 0° C. ice/water bath for another 30′ or until clear. Polysorbate 80 (0.5 g) was added and stirring at room temperature followed for 30′-1 hr or until a clear solution was obtained.
The desired amount of 0.5% methylcellulose and 0.5% polysorbate 80 stock solution for making a 6 mg/mL based on free base (6.48 mg/mL based on HCl salt) was transferred into the vial and sonicated for 20 minutes with alternate stirring for 1-2 minutes. The solution was homogenized for approximately 1-2 minutes.
As with 0.5% methylcellulose formulation prepared previously, the HCl salt was quickly converted to Compound 1 in Form I at T(0) resulting in a crystalline free form suspension as shown by XRPD (FIG. 10) and confirmed by ^1H NMR analysis (FIGS. 11-13). Additionally, the solid form in suspension at T(0) was recovered an subjected to HPLC analysis: […]

[2] = Stability of 6 mg/mL aqueous methylcellulose suspension (HPLC, XRPD); format: physicochemical; conditions: room temperature; for Peak purity %: 6 mg/mL aqueous methylcellulose suspension
Description: A 100 mL stock solution of 0.5% by weight methylcellulose was prepared by stirring 0.5 g of methylcellulose with 99.5 g of purified water until completely dissolved (approximately 24 hours). […] The desired amount of 0.5% methylcellulose stock solution for making a 6 mg/mL based on free base (6.48 mg/mL based on HCl salt) was transferred into the vial and sonicated for 20 minutes and homogenized for approximately 5 minutes.
The methylcellulose formulation was also subjected to HPLC analysis at 0 and 24 hours: […]

[3] = Toxicokinetics in 7-day dose range finding study in rats; format: in vivo; conditions: 300 mg/kg/day; for Cmax: rat, plasma, oral
Description: The animals were dosed orally with the vehicle (0.5% methylcellulose in water), or 15, 75, or 150 mg/kg Compound 1 twice daily for 7 consecutive days. The two daily doses were administered approximately 10 hours apart and the dose volume was 5 mL/kg/b.i.d. for all dose groups. At the end of the dosing period, all animals were euthanized and necropsied. Satellite animals (6/sex/Groups 2-4) were dosed in the same manner as the toxicity animals and plasma samples were collected on Days 1 and 7 for toxicokinetic (TK) analysis. Parameters evaluated during the study were: viability, clinical observations, body weights, feed consumption, clinical pathology (termination), organ weights, macroscopic observations and microscopic pathology.
The plasma AUC0-24 data on Day 1 was consistent with previously conducted single dose studies of Compound 1 in the rat.

rats = assay: 14-day repeat-dose oral toxicity study in rats; conditions: assuming efficacious dose in rats 2.3 mg/kg b.i.d. (Ctrough at EC90)
Description: Repeat-dose oral toxicity studies of 7- and 14-days duration have been conducted in rats (up to 600 mg/kg/day) and dogs (up to 200 mg/kg/day).

[4] = Pharmacokinetics in CD-1 mice; format: in vivo; conditions: mouse
Description: The pharmacokinetics of Compound 1 were assessed in the same species used in the toxicology studies: CD-1 mice, Sprague Dawley rats and beagle dogs. The pharmacokinetics of Compound 1 were also assessed in cynomolgus monkeys.

Q: With Cc1ccc(NC(=O)C2(c3ccc4c(c3)OC(F)(F)O4)CC2)nc1-c1cccc(C(=O)O)c1 [Compound 1, 3-(6-(1-(2,2-difluorobenzo[d][1,3]dioxol-5-yl)cyclopropanecarboxamido)-3-methylpyridin-2-yl)benzoic acid] as the compound, how does the “degradation peaks by HPLC” value [1] read?
A: The value was “No major degradation peaks were detected”.

Q: And the Peak purity % ([1]; T(0))?
A: The Peak purity % was 98.81%.

Q: What about the Peak purity % ([1]; T(24 h)) of the same compound?
A: The Peak purity % was 98.24%.

Q: And the “chemically stable, time” value ([1]; 24 h, 6 mg/mL)?
A: Its value is “at least 24 hrs”.

Q: What about the Peak purity % ([2]; T(0)) of the same compound?
A: The Peak purity % was 99.41%.

Q: And the Peak purity % ([2]; T(24 h))?
A: Its Peak purity % is 99.37%.

Q: And the “physically and chemically stable, time” value ([2]; methylcellulose formulation)?
A: The value was “at least 24 hrs”.

Q: What about the average plasma concentrations ([3]; females) of the same compound?
A: Its average plasma concentrations is ~190 µM.

Q: And the Cmax ([3]; female, females)?
A: Its Cmax is ~280 µM.

Q: And the Cmax ([3]; male, males)?
A: The Cmax was ~430 µM.

Q: And the “projected safety margin from the rat NOAEL” value (rats)?
A: The value was 130 ×.

Q: What about the clearance [4] of the same compound?
A: The clearance was “very low clearance”.
